Laboratory results taken from ChEMBL document CHEMBL5380777, “Efficacy, Mechanism, and Structure-Activity Relationship of 6-Methoxy Benzofuran Derivatives as a Useful Tool for Senile Osteoporosis” (J Med Chem, 2023).
The source made the active and inactive calls. The rule behind the calls is not given here.

What was measured:
Mus musculus [1] = assay: Anti osteoporosis in 16 months old C57 mouse assessed as fold increase in chondrocytes level in femur administered at 30 mg/kg/day, IG continuously for 4 months by scRNA-seq analysis relative to control; assay type: functional; details: 2920 h
Mus musculus [2] = assay: Anti osteoporosis in 16 months old C57 mouse assessed as fold increase in osteoclast level in femur administered at 30 mg/kg/day, IG continuously for 4 months by scRNA-seq analysis relative to control; assay type: functional; details: 2920 h
[3] = Acute toxicity in wildtype 3 days post-fertilization AB zebrafish at more than 10 uM; set-up: species or system Danio rerio; details: in vivo, 72 h
Danio rerio = organism: Danio rerio; assay: Anti osteoporosis activity in prednisone induced wildtype 3 days post-fertilization AB zebrafish osteoporosis model assessed as increase in bone fluorescence intensity (RVB = 13620 +/- 1692); assay type: functional
Mus musculus [4] = assay: Anti osteoporosis in 16 months old C57 mouse assessed as reconstruction of bone microstructure administered at 30 mg/kg/day, IG continuously for 4 months by micro CT analysis relative to aged control group; assay type: functional, organism-based
Mus musculus [5] = assay: Anti osteoporosis in 16 months old C57 mouse assessed as reconstruction of bone microstructure administered at 30 mg/kg/day, IG continuously for 4 months by micro CT analysis relative to young control group; assay type: functional, organism-based
Mus musculus [6] = assay: Anti osteoporosis in 16 months old C57 mouse assessed as increase in bone mass administered at 30 mg/kg/day, IG continuously for 2 months by micro CT analysis relative to young control group; assay type: functional, organism-based
Mus musculus [7] = assay: Anti osteoporosis in 16 months old C57 mouse assessed as increase in bone mass administered at 30 mg/kg/day, IG continuously for 4 months by micro CT analysis relative to aged control group; assay type: functional, organism-based
Mus musculus [8] = assay: Anti osteoporosis in 16 months old C57 mouse assessed as increase in bone mass in femur from proximal end to the distal end administered at 30 mg/kg/day, IG continuously for 2 to 4 months by micro CT analysis relative to aged control group; assay type: functional, organism-based; details: time 2-4 months
[9] = Toxicity in 16 months old C57 mouse assessed as change in body weight administered at 30 mg/kg/day, IG continuously for 4 months relative to aged control group; assay type: organism-based; details: in vivo, po, 2920 h
[10] = Toxicity in 16 months old C57 mouse assessed as change in albumin level administered at 30 mg/kg/day, IG continuously for 4 months; assay type: organism-based; details: in vivo, po, 2920 h
[11] = Toxicity in 16 months old C57 mouse assessed as change in triglyceride level administered at 30 mg/kg/day, IG continuously for 4 months; assay type: organism-based; details: in vivo, po, 2920 h
Mus musculus [12] = assay: Anti osteoporosis in 2.5 months old SAMP-6 rapid aging mouse model assessed as increase in bone mass administered at 30 mg/kg/day, IG continuously for 3 months by micro CT analysis; assay type: functional, organism-based
Mus musculus [13] = assay: Anti osteoporosis in 2.5 months old SAMP-6 rapid aging mouse model assessed as upregulation of serum BMP2 administered at 30 mg/kg/day, IG continuously for 3 months […]; assay type: functional, organism-based
[14] = Toxicity in 2.5 months old SAMP-6 rapid aging mouse model assessed as morphological change in kidney administered at 30 mg/kg/day, IG continuously for 3 months by hematoxylin and eosin staining analysis; assay type: organism-based; details: in vivo, po, 2190 h
[15] = Toxicity in 2.5 months old SAMP-6 rapid aging mouse model assessed as morphological change in kidney administered at 30 mg/kg/day, IG continuously for 3 months in presence of ALN by hematoxylin and eosin staining analysis; assay type: organism-based; details: in vivo, po, 2190 h
[16] = Toxicity in 2.5 months old SAMP-6 rapid aging mouse model assessed as morphological change in liver administered at 30 mg/kg/day, IG continuously for 3 months by hematoxylin and eosin staining analysis; assay type: organism-based; details: in vivo, po, 2190 h
[17] = Toxicity in 2.5 months old SAMP-6 rapid aging mouse model assessed as morphological change in liver administered at 30 mg/kg/day, IG continuously for 3 months in presence of ALN by hematoxylin and eosin staining analysis; assay type: organism-based; details: in vivo, po, 2190 h
[18] = Toxicity in 2.5 months old SAMP-6 rapid aging mouse model assessed as change in serum ALT level administered at 30 mg/kg/day, IG continuously for 3 months; assay type: organism-based; details: in vivo, po, 2190 h
[19] = Toxicity in 2.5 months old SAMP-6 rapid aging mouse model assessed as change in ALP level administered at 30 mg/kg/day, IG continuously for 3 months; assay type: organism-based; details: in vivo, po, 2190 h
[20] = Toxicity in 2.5 months old SAMP-6 rapid aging mouse model assessed as change in triglyceride level administered at 30 mg/kg/day, IG continuously for 3 months; assay type: organism-based; details: in vivo, po, 2190 h
[21] = Toxicity in 2.5 months old SAMP-6 rapid aging mouse model assessed as change in serum AST level administered at 30 mg/kg/day, IG continuously for 3 months in presence of ALN; assay type: organism-based; details: in vivo, po, 2190 h
[22] = Toxicity in 2.5 months old SAMP-6 rapid aging mouse model assessed as change in triglyceride level administered at 30 mg/kg/day, IG continuously for 3 months in presence of ALN; assay type: organism-based; details: in vivo, po, 2190 h
Mus musculus [23] = assay: Anti osteoporosis in 16 months old C57 mouse assessed as T cell level in femur administered at 30 mg/kg/day, IG continuously for 4 months by scRNA-seq analysis (reference value: 10.54%); assay type: functional; details: 2920 h
Mus musculus [24] = assay: Anti osteoporosis in 16 months old C57 mouse assessed as osteoblast level in femur administered at 30 mg/kg/day, IG continuously for 4 months by scRNA-seq analysis (reference value: 5.05%); assay type: functional; details: 2920 h
Mus musculus [25] = assay: Anti osteoporosis in 16 months old C57 mouse assessed as monocyte level in femur administered at 30 mg/kg/day, IG continuously for 4 months by scRNA-seq analysis (reference value: 12.2%); assay type: functional; details: 2920 h
Mus musculus [26] = assay: Anti osteoporosis in 16 months old C57 mouse assessed as B cell level in femur administered at 30 mg/kg/day, IG continuously for 4 months by scRNA-seq analysis (reference value: 5.19%); assay type: functional; details: 2920 h
Mus musculus [27] = assay: Anti osteoporosis in 16 months old C57 mouse assessed as endothelial cell level in femur administered at 30 mg/kg/day, IG continuously for 4 months by scRNA-seq analysis (reference value: 2.34%); assay type: functional; details: 2920 h
Mus musculus [28] = assay: Anti osteoporosis in 16 months old C57 mouse assessed as erythroblast level in femur administered at 30 mg/kg/day, IG continuously for 4 months by scRNA-seq analysis (reference value: 1.91%); assay type: functional; details: 2920 h
Osteoblast [29] = assay: Upregulation of BMP-2 expression in 16 months old C57 mouse osteoblast by scRNA-seq analysis; assay type: functional, cell-based
Osteoblast [30] = assay: Upregulation of transcription factor XBP1 expression in 16 months old C57 mouse osteoblast by scRNA-seq analysis; assay type: functional, cell-based
Osteoblast [31] = assay: Upregulation of transcription factor HMGA1 expression in 16 months old C57 mouse osteoblast by scRNA-seq analysis; assay type: functional, cell-based
Osteoblast [32] = assay: Upregulation of transcription factor MYC expression in 16 months old C57 mouse osteoblast by scRNA-seq analysis; assay type: functional, cell-based
Osteoblast [33] = assay: Upregulation of transcription factor CSDE1 expression in 16 months old C57 mouse osteoblast by scRNA-seq analysis; assay type: functional, cell-based
Osteoblast [34] = assay: Regulation of osteogenesis in 16 months old C57 mouse osteoblast endoplasmic reticulum assessed as increase in Hspa1b gene by scRNA-seq analysis; assay type: functional, cell-based
Osteoblast [35] = assay: Regulation of osteogenesis in 16 months old C57 mouse osteoblast endoplasmic reticulum assessed as increase in Dnaja1 gene by scRNA-seq analysis; assay type: functional, cell-based

Q: With `COc1ccc2cc(C(=O)NCCN(C)C)oc2c1.CS(=O)(=O)O` as the molecule, how does the “fold change (FC)” value (Mus musculus [1]) read?
A: 2

Q: What about the “fold change (FC)” value (Mus musculus [2]) of the same molecule?
A: 3

Q: And the Activity [3]?
A: Toxic

Q: And the Flu intensity (Danio rerio)?
A: 19181

Q: And the Activity (Mus musculus [4])?
A: Active

Q: And the Activity (Mus musculus [5])?
A: Active

Q: What about the Activity (Mus musculus [6]) of the same molecule?
A: inactive

Q: What about the Activity (Mus musculus [7]) of the same molecule?
A: Active

Q: What about the Activity (Mus musculus [8]) of the same molecule?
A: Active

Q: What about the Activity [9] of the same molecule?
A: Non-Toxic

Q: What about the Activity [10] of the same molecule?
A: Non-Toxic

Q: What about the Activity [11] of the same molecule?
A: Non-Toxic

Q: What about the Activity (Mus musculus [12]) of the same molecule?
A: Active

Q: And the Activity (Mus musculus [13])?
A: Active

Q: And the Activity [14]?
A: Non-Toxic

Q: What about the Activity [15] of the same molecule?
A: Non-Toxic

Q: What about the Activity [16] of the same molecule?
A: Non-Toxic

Q: And the Activity [17]?
A: Non-Toxic

Q: What about the Activity [18] of the same molecule?
A: Non-Toxic

Q: What about the Activity [19] of the same molecule?
A: Non-Toxic

Q: What about the Activity [20] of the same molecule?
A: Non-Toxic

Q: And the Activity [21]?
A: Non-Toxic

Q: What about the Activity [22] of the same molecule?
A: Non-Toxic

Q: What about the Activity (Mus musculus [23]) of the same molecule?
A: 8.96%

Q: What about the Activity (Mus musculus [24]) of the same molecule?
A: 15.03%

Q: What about the Activity (Mus musculus [25]) of the same molecule?
A: 4.94%

Q: And the Activity (Mus musculus [26])?
A: 3.05%

Q: And the Activity (Mus musculus [27])?
A: 2.38%

Q: And the Activity (Mus musculus [28])?
A: 1.42%

Q: And the Activity (Osteoblast [29])?
A: Active

Q: What about the Activity (Osteoblast [30]) of the same molecule?
A: Active

Q: What about the Activity (Osteoblast [31]) of the same molecule?
A: Active

Q: And the Activity (Osteoblast [32])?
A: Active

Q: What about the Activity (Osteoblast [33]) of the same molecule?
A: Active

Q: What about the Activity (Osteoblast [34]) of the same molecule?
A: Active

Q: What about the Activity (Osteoblast [35]) of the same molecule?
A: Active
